Tests used:
[1] = target: T1, Human ACC2 (amino acids 1685-2458) (Homo sapiens, UniProt O00763); assay: ThermoFluor measurement of compound binding to ACC2 CT domain; settings: carboxyterminus (CT) domain, pH 7.0, read-out: ACC2 TF Kd
T1 construct: Human ACC2 (amino acids 1685-2458); 6His (N, cleaved yes); FLAG (N, cleaved yes); TEV cleavage site (N, cleaved yes); made in house; host or cells: Sf9 insect cells (baculovirus)
Protocol: (§1) The 6His.FLAG.TEV Human ACC2 (amino acids 1685-2458) (Egea Biosciences, San Diego, Calif.) and 6His.FLAG. TEV. Human ACC1 (amino acids 1603-2383) (Egea Biosciences, San Diego, Calif.) genes were synthesized and subcloned into the pENTR11 vector. Transfection-grade DNA was purified using the QIAwell® Kit from Qiagen. The LR reaction was performed overnight and then transfected into Sf9 cells using a BaculoDirect® Baculovirus Expression System (Invitrogen). The P0 virus was collected 4 days post transfection and used for another round of virus amplification. The resulting P1 virus and cells were collected 3 days post-infection. […]
(§2) On-column cleavage of the histidine tag was performed by injecting 96 ug of TEV S219V protease/mg (of ACC2 CT. The product was incubated at 4° C. for 20 hours. The cleaved ACC2 was eluted in buffer A and loaded directly onto a HiLoad® 16/60 Superdex 200 column (GE Healthcare), preequilibrated with 25 mM Tris Buffer (at pH 8.0, 200 mM NaCl, 5% Glycerol, 5 mM DTT). Fractions containing ACC2 CT, assayed by SDS-PAGE, were pooled. For cocrystallization, the compound was added in a 1:2 molar ratio of protein:compound and incubated overnight at 4° C. The complex was concentrated to a final protein concentration of 7 mg/mL using an 30 kDa cut-off Ultrafree® membrane (Millipore, Billerica, Mass.) and was then ready for crystallization. […]

[2] = target: T2, Human ACC1 (amino acids 1603-2383) (Homo sapiens, UniProt Q13085); assay: ThermoFluor measurement of compound binding to ACC1 CT domain; settings: carboxyterminus (CT) domain, pH 7.0, read-out: ACC1 TF Kd
T2 construct: Human ACC1 (amino acids 1603-2383); 6His (N); FLAG (N); TEV cleavage site (N); made in house; host or cells: Sf9 insect cells (baculovirus)
Protocol: as §1, §2

[3] = tested on: ApoB secretion from HepG2 cells; assay: ApoB secretion from HepG2 cells; assay type: cell-based; settings: Homo sapiens, 24 hours, ApoB in medium by ELISA
Protocol: HepG2 cells (American Type Culture Collection: Catalog No. #HB-8065) are maintained in Growth Media consisting of DMEM with 4.5 g/L glucose (Cellgro: Catalog No. #10-013-CV), supplemented with 10% fetal bovine serum (FBS) (Cellgro: Catalog No. #35-011-CV) and 100 U/mL each penicillin and streptomycin (Cellgro: Catalog No. #30-002-Cl). For the assay, cells are plated @ ˜10,000 cells/well in white, clear-bottom, 96-well plates (Costar: Catalog No. #3610) and incubated in a humidified 5% CO2 atmosphere at 37° C. The next day, Growth Media is replaced with RPMI 1640 without glucose (Cellgro: Catalog No. #10-043-CV), supplemented with 10% charcoal/dextran treated FBS (Hyclone: Catalog No. #SH30068.02) and 100 U/mL each penicillin and streptomycin (starvation media). The cells are maintained overnight in a humidified 5% CO2 atmosphere at 37° C. […] Twenty-four hours later, the growth medium is collected and assessed for ApoB content. […]
The samples are removed and the plate is washed again 3× with 200 μL PBST, then 100 μL of 1/10,000 HRP-conjugated, affinity-purified polyclonal sheep anti-human ApoB detection antibody (BioDesign International Product No. # K90086P) is added to each well and the plate is incubated for one hour at 37° C. […] The plate is read for one second in an Orion Microplate Luminometer®. […]

T1 sequence (O00763 1685-2458): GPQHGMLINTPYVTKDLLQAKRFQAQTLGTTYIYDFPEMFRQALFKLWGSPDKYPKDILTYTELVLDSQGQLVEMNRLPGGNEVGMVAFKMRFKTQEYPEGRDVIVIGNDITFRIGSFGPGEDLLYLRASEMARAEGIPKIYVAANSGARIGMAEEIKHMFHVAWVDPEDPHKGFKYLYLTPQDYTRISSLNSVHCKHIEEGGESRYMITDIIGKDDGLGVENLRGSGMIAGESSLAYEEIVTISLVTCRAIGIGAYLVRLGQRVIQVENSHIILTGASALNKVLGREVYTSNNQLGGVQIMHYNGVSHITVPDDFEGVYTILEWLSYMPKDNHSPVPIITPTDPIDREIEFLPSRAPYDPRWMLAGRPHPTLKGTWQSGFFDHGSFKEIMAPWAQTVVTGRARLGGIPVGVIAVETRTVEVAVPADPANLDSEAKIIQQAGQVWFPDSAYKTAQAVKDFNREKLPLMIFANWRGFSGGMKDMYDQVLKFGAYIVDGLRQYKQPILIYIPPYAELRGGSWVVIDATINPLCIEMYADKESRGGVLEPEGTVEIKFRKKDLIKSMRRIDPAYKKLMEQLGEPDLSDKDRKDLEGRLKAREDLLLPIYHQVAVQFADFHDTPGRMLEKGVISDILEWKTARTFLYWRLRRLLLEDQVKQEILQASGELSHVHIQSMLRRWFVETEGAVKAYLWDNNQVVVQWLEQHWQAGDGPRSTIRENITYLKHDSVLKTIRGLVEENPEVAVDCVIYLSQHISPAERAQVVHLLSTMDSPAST

Kd [1]: 400 nM | Kd [2]: 970 nM | IC50 [3]: 8000 nM
Structure (SMILES): Cc1ccc2nc(-c3ccncc3)cc(C(=O)N3CCN(Cc4ccc5c(c4)OCCO5)CC3)c2c1 [Cpd 1, [4-(2,3-Dihydro-benzo[1,4]dioxin-6-ylmethyl)-piperazin-1-yl]-(6-methyl-2-pyridin-4-yl-quinolin-4-yl)methanone]
